Test results as given in PMC9351465, “Mechanism-based heparanase inhibitors reduce cancer metastasis in vivo” (Proceedings of the National Academy of Sciences of the …, 2022).

Legend:
CAG myeloma cancer cells = test: CAG myeloma xenograft bone metastasis model (luciferase imaging); assay type: in vivo, mouse; conditions: NOD/SCID mice
From the text: Finally, we examined a CAG myeloma xenograft model, which faithfully recapitulates the invasion of multiple myeloma to the bone marrow. We compared the efficacy of 2 to bortezomib, a proteasome inhibitor and standard treatment for multiple myeloma and lymphomas, and also explored the possibility of synergistic proteasomal and HPSE inhibitor treatment. In contrast to the single initial dose regimens used for B16 and 4T1, a continuous dosing regimen was used in this assay to gauge the efficacy of 2 over longer treatment periods. Following injection of luciferase expressing CAG cells, mice were treated with a course of 2 (300 nmol/day i.p.), bortezomib (0.5 mg/kg twice weekly i.p.), or a combination of both compounds. […]
Mice were sacrificed after 14 days and the lungs were dissected, photographed and evaluated for the number of metastatic foci/lung. […]
Bioluminescence imaging of lung metastases produced by luciferase-expressing 4T1 cells was carried out using a highly sensitive, cooled charge-coupled device camera assembled in a specimen box (IVIS; Xenogen Corp, Hopkinton, MA). […] The tumor burden was quantified using Living Image software (Xenogen) (12, 13). […]
CAG myeloma - Luciferase-labeled CAG human myeloma cells (3x106) were injected into the tail vein of NOD/SCID mice. […] Tumor burden was quantified using Living Image software. […]

HPSE = target: T1, HPSE (Homo sapiens, UniProt Q9Y251); test: H35SPG basement membrane (ECM) digest by recombinant HPSE; assay type: biochemical
T1 sequence (Q9Y251 158-543 limits assumed): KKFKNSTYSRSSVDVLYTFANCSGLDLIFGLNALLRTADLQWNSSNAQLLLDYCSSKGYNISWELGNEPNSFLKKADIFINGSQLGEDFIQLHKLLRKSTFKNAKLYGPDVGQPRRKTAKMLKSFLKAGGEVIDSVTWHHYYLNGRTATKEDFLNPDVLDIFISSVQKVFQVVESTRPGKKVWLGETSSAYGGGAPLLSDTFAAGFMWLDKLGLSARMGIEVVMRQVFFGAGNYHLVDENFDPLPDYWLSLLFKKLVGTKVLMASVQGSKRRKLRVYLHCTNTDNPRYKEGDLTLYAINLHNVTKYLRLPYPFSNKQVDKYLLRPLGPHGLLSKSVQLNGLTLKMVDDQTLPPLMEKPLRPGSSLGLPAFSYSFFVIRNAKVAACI
T1 sequence (Q9Y251 36-109 limits assumed): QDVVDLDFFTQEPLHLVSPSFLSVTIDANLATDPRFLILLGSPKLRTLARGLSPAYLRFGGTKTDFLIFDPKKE
From the text: Finally, we assessed our inhibitors against HPSE-mediated degradation of bona fide HSPGs in an ECM environment. Cultured bovine corneal endothelial cells secrete a subendothelial basement membrane material rich in proteoglycans, which can be radiolabeled by growth in the presence of ^35SO4^2− ([50]). Solubilized H^35S chains released from H^35SPGs by HPSE digestion can be resolved chromatographically, with HPSE inhibition leading to a corresponding loss of signal. […] We also tested inhibition of endogenous cellular HPSE using this assay format. […]
ECM coated 35 mm culture dishes containing 35S labelled HS were prepared as previously described (10). Briefly, bovine corneal endothelial cells were plated at an initial density of 2x10^5 cells/ml, with 4% dextran T-40 (Sigma) included in the growth medium. Na235SO4 (25 µCi/ml) was added to the incubation medium on days 2 and 5 after seeding. On day 12, subendothelial ECM is exposed by dissolving the cells with PBS containing 0.5% Triton X-100 and 20 mM NH4OH, followed by four washes with PBS.
For HS-degradation assays, ECM coated dishes were incubated with 200 ng recombinant HPSE in 1 mL reaction mixture (10 mM buffer Phosphate-Citrate pH 6.0, 50 mM NaCl, 1 mM DTT, 1 mM CaCl2) containing HPSE inhibitors or DMSO control. Plates were incubated at 37°C for 5 h, then assay medium collected and applied to a 0.9×30 cm Sepharose 6B size exclusion column. The Sepharose 6B column was eluted with PBS, and 35S radioactivity of 0.2 mL fractions quantitated using a liquid scintillation analyzer (Packard BioScience) (11). […]
Matrigel and […]
non-migrating cells in the upper side of the Boyden filter were removed by swabbing, then invading cells on the bottom side of the transwell filter imaged for analysis. […]
B16 melanoma - Twenty minutes before tumor cell inoculation, C57BL/J6 mice (n=5) were injected intraperitoneally with vehicle alone (PBS), compound 2 (300 nmol/mouse), or SST0001 (150 µg/mouse). Mice were subsequently intravenously inoculated with 1.5x105

In the case of `CC(=O)N[C@H]1[C@@H](O[C@H]2[C@H](O)[C@@H](O)[C@@H]3O[C@@H]3[C@@H]2C(=O)O)O[C@H](CO)[C@@H](O)[C@@H]1O` [compound 2], the “metastatic burden (bioluminescent flux)” value (CAG myeloma cancer cells; 2 300 nmol/day i.p., bortezomib 0.5 mg/kg twice weekly i.p., imaging over time) is reported as “moderate reduction in metastatic burden”, the “antimetastatic efficacy at 33 d timepoint” value (CAG myeloma cancer cells; continuous dosing, 33 d) is reported as “somewhat reduced efficacy following prolonged treatment” and the “inhibition of recombinant HPSE-mediated H35SPG cleavage” value (HPSE; 200 ng HPSE, pH 6.0, 37°C, 5 h) is reported as “robust, dose-dependent inhibition”. The “level of inhibition of H35SPG cleavage relative to 4.6 μM 10” value (HPSE; 1 μM 2 or 3 compared to 4.6 μM 10) was “comparable levels of inhibition”.
